Source: patent US7223424B2, “Compositions and methods for prostate and kidney health and disorders, an herbal preparation” (Integrated Chinese Medicine Holdings, Ltd., priority 2001, dated 2007)

Tested on: person with enlarged prostate
Assay: Case report: person with enlarged prostate and frequent urination
Type: in vivo, human
Conditions: prescribed for enlarged prostate
Source text: Person diagnosed with having an enlarged prostate suffered from frequent-urination problems including increased daily frequency and reduced volume. They had the urge to urinate every two hours and the amount was only a few drops. Their symptoms were attributed to old age. […] They are able to urinate what they consider a normal amount of urine in a steady stream as opposed to the dribbling they experienced prior to taking the 9-herb composition. […] Because they are sleeping better, they have more energy throughout the day.

In the case of `CC(C)(C)NC(=O)[C@H]1CC[C@H]2[C@@H]3CC[C@H]4NC(=O)C=C[C@]4(C)[C@H]3CC[C@]12C` [PROSCAR], the urination problem is reported as “did not alleviate the urination problem”.
